From PubChem BioAssay (NCI) come the findings set out here.

Some test systems named below: NCI-H522 lung; KM12 colon; SK-MEL-5 melanoma; OVCAR-8 ovarian; DU-145 prostate; NCI-H460 lung; NCI-H23 lung; UO-31 renal; UACC-257 melanoma; RXF 393 renal.
Common to all, as to assay: NCI tumour cell line growth inhibition, 48 h

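Tested at 5 concentrations; 48 h exposure; 96-well plates; endpoints linearly interpolated, else capped at highest concentration. The concentration for 50% growth inhibition is given as GI50. TGI denotes the concentration required for complete inhibition of growth.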 A value given as a limit tells only on which side of the number the result lay.

Consider `CC(=O)OC(C)C(OC(C)=O)C(OC(C)=O)C(/C=C/C1CC=CC(=O)O1)OC(C)=O` (stereo not given), for which the GI50 in the assay with NCI-H522 lung was 22.9 µM; in the assay with KM12 colon, 22.8 µM; with SK-MEL-5 melanoma, 26.3 µM; with OVCAR-8 ovarian, 26.8 µM; with DU-145 prostate, 18.8 µM; in the assay with NCI-H460 lung, 32.7 µM. Besides, the GI50 in the assay on NCI-H23 lung is 31.3 µM; in the assay on UO-31 renal, 42.8 µM; in the assay on UACC-257 melanoma, 19.5 µM; with RXF 393 renal, 21.3 µM. Also, the TGI in the assay on NCI-H522 lung is 60.3 µM; in the assay with KM12 colon it was 61 µM; in the assay with SK-MEL-5 melanoma it was more than 100 µM; in the assay with OVCAR-8 ovarian it was 89.2 µM; in the assay with DU-145 prostate, 43.1 µM; in the assay on NCI-H460 lung it was more than 100 µM. The TGI in the assay on NCI-H23 lung was 98 µM; in the assay with UO-31 renal, more than 100 µM; in the assay on UACC-257 melanoma, 42.1 µM; with RXF 393 renal, 73.4 µM.

Turning to `O=NN(CCCl)C(=O)NC1CCC(=O)NC1=O` (stereo not given), the TGI came to 485 µM in the assay with NCI-H522 lung; 578 µM in the assay on KM12 colon; 273 µM with SK-MEL-5 melanoma; 293 µM in the assay with OVCAR-8 ovarian; 1060 µM in the assay on DU-145 prostate; 463 µM in the assay on NCI-H460 lung. Moreover, the TGI in the assay with NCI-H23 lung came out at 842 µM; with UO-31 renal, 1250 µM; in the assay on UACC-257 melanoma, 975 µM; with RXF 393 renal, 583 µM.
